Assay results as given in patent US20070178575A1, “Identification Of A Nitrilase From B. Japonicum By Rational Genome Mining And Methods Of Use” (priority 2005, published 2007).

How the values were obtained:
[1] = biological target: T1, nitrilase bll6402 (Bradyrhizobium diazoefficiens, UniProt Q89GE3); experiment: Regioselective hydrolysis of 1-cyanocycloalkaneacetonitriles; assay type: biochemical, Bradyrhizobium japonicum USDA110; conditions: 200 mg dinitrile, 10 mg nitrilase, pH 7.2, 30° C.
Method: The general procedure was followed: 1-Cyanocycloalkaneacetonitiles (200 mg) was treated with the nitrilase (10 mg) in potassium phosphate buffer (50 ml, 100 mM, pH=7.2). The reaction mixture was incubated at 30° C. and monitored by ^13C NMR. When dinitrile was consumed, the mixture was acidified with 1 N HCl solution to pH˜5, saturated with NaCl and extracted with ethyl acetate. The organic extract was dried over anhydrous sodium sulfate. Removal of solvent provided the desired product, which was further purified by preparative TLC using ethyl acetate-hexane (35/65, v/v) as eluting solvent.

[2] = biological target: T1, nitrilase bll6402; experiment: Hydrolysis of aromatic α-hydroxy nitriles, conversion by HPLC; assay type: biochemical, Bradyrhizobium japonicum USDA110; conditions: 25 mM nitrile, 0.16 mg nitrilase in 1 mL, pH 7.2, overnight at 30° C.
Method: To further characterize the efficiency of nitrilase b116402 to catalyze the hydrolysis of mandelonitrile derivatives to the corresponding carboxylic acids, the hydrolysis of several aromatic α-hydroxy nitrites were carried out and the product carboxylic acids were characterized by HPLC analysis. An example procedure was as follows: aromatic α-hydroxynitriles (25 mM) were treated with 0.16 mg nitrilase bll6402 in 1 mL of potassium phosphate buffer (100 mM, pH 7.2). The reaction mixture was incubated overnight at 30° C. A sample was withdrawn and analyzed by HPLC (column: Agilent C8, eluent: MeOH:H2O=20:80, flow rate: 1 mL/min, detector: 254 nm) and the products were identified by comparison with the authentic standards.

[3] = biological target: T1, nitrilase bll6402; experiment: Selective hydrolysis of dinitriles to cyanocarboxylic acids; assay type: biochemical, Bradyrhizobium japonicum USDA110; conditions: selective hydrolysis of dinitrile
Excerpt: Because of the synthetic importance of selective hydrolysis of dinitriles to […], nitrilase bll6402 was studied toward the hydrolysis of a series of dinitriles (e.g., scheme 6). [drawing 6]
The selectivity was not dependent on the chain length. This was different from the results obtained with nitrilases from Arabidopsis thaliana, acidovorax facilis 72W and cyanobacterium Synechocystis sp. strain PCC 6803, in which di-acids were obtained as the chain length increased.

[4] = Effects of temperature, pH and organic solvents on nitrilase activity; assay type: biochemical; conditions: 30% (v/v) of hexane, tert-butyl methyl ether or toluene; 30° C., pH 7.1, 4 hours
Method: For the determination of temperature effect, a mixture of nitrilase (0.5 mg) with benzyl cyanide (50 mM) in 1.0 ml of potassium phosphate buffer (100 mM, pH 7.1) was incubated at 25° C., 30° C., 37° C. and 45° C., respectively. Aliquots (100 μl) were taken after 1, 2, 4, and 16 hrs intervals, and acidified with 10 μl of 1M HC1. The formed phenylacetic acid was extracted into 200 μl of tert-butyl methyl ether, dried over anhydrous sodium sulfate, and quantified by GC analysis after converting to methyl ester with diazomethane.
The pH effect was studied using the following buffer: sodium citrate buffer (pH 4.91 and 5.44), potassium phosphate buffer (pH 6.07, 6.52, 7.10, 7.58, 7.98 and 8.49) and sodium bicarbonate buffer (pH 8.98). A mixture of nitrilase (0.5 mg) with benzyl cyanide (50 mM) in 1.0 ml of the respective buffer (100 mM) was incubated at 30° C. […] The formed phenylacetic acid was extracted into 200 μl of tert-butyl methyl ether, dried over anhydrous sodium sulfate, and quantified by GC analysis after converting to methyl ester with diazomethane.
The organic solvent effects were evaluated with dimethyl sulfoxide (DMSO), tert-butyl methyl ether, hexane, toluene and butyl acetate. […] The formed phenylacetic acid was extracted into 1 ml of tert-butyl methyl ether, dried over anhydrous sodium sulfate, and quantified by GC analysis after converting to methyl ester with diazomethane.

[5] = biological target: T1, nitrilase bll6402; experiment: Substrate specificity: specific/relative activity by ammonia release; assay type: biochemical, Bradyrhizobium japonicum USDA110; conditions: for Relative Activity: 25 mM substrate, pH 7.2, 30° C., phenylacetonitrile defined as 100
Method: The standard assays were carried out by mixing the substrate nitrile and purified nitrilase enzyme in potassium phosphate buffer (100 mM, pH 7.2). The reaction mixture was incubated at 30° C. Samples (100 μL) of the reaction mixture were withdrawn at several time intervals and quenched with 10 μl of 1 M HCl. The amount of ammonia produced in the reaction was measured using Bertholet assay as follows: A 100 μL aliquot of each of the following assay reagents was added subsequently: 0.02 M NaOCl, 0.33 M sodium phenoxide and 0.01% sodium nitroprusside solution. The mixture was then heated at 95° C. for 2 min, cooled rapidly in ice-water bath, and 200 μl of the mixture was then placed in a 96-well plate to measure the absorbance at 640 nm using SpectraMax M2 microplate reader (Molecular Devices). The amount of ammonia released during the hydrolysis was calculated by comparison with the standard curve obtained with standard ammonium chloride solution, and the activity was defined as the number of μmol of ammonia produced in 1 minute by 1 mg of enzyme (μmol·min^−1·mg^−1). To determine the kinetic parameters of the purified protein for mandelonitrile, activity assays were performed with different substrate concentrations, and Vmax and Km were calculated by best fitting the curve to experimental data according to Michaelis equation.
The specific activities of nitrilase bll6402 toward 24 different nitrites with structural diversity were measured by the quantification of the amount of ammonia released during the hydrolysis. A reaction mixture containing 20 or 40 μg of purified bll6402 enzyme, 25 mM substrate in potassium phosphate buffer (1 ml, 100 mM, pH 7.2) was incubated at 30° C. The conversion was determined by measuring the amount of ammonia produced in the reaction using Bertholet assay as described above.

[6] = biological target: T1, nitrilase bll6402; experiment: Enantioselective hydrolysis of β-hydroxy nitriles; assay type: biochemical, Bradyrhizobium japonicum USDA110
Method: β-Hydroxy nitrites were prepared by the cyanization of α-bromoketones with sodium cyanide followed by NaBH4 reduction. The obtained β-hydroxy nitrites were treated with purified nitrilase bll6402 in potassium phosphate buffer (100 mM, pH 7.0), and the reaction mixture was incubated overnight at 30° C. The mixture was then saturated with NaCl and extracted with ethyl acetate. The extract was dried over sodium sulfate, and evaporation of the solvent under reduced pressure afforded the crude products. The β-hydroxy carboxylic acids were separated from unreacted β-hydroxy nitrites by preparative thin-layer chromatography.
The ee values of both the product acids and the recovered nitrites were measured by chiral HPLC analysis, and their absolute configurations were determined by comparing the sign of optical rotation with the literature data. The enantiomeric ratios (E) were calculated using the equations proposed by Sih et al. (J. Am. Chem. Soc. 1982, 104, 7294-7299). The results are presented in Table 6 together with the data for the hydrolysis of mandelonitrile under the same conditions.

[7] = test system: arylacetonitrilases from Alcaligenes faecalis ATCC8750 and JM3; conditions: known arylacetonitrilases; cited from earlier work
[8] = biological target: T1, nitrilase bll6402; assay type: biochemical, Bradyrhizobium japonicum USDA110; conditions: pH 7.2
[9] = pH 7.0, overnight at 30° C., isolated yield

T1 sequence (Q89GE3 whole entry, looked up): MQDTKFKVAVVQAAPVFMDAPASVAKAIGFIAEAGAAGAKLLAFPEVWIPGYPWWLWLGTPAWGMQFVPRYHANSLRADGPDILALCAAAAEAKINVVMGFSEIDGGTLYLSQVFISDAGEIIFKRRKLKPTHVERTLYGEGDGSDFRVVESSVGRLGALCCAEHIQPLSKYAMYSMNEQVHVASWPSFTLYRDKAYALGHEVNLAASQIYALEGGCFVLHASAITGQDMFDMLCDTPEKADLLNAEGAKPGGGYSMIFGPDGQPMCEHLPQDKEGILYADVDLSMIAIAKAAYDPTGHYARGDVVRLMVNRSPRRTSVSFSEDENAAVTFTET

Molecule	Relative Activity [5]	other results
N#CCC1(C#N)CCCCC1 [1-cyancyclohexaneacetonitrile]		isolated yield of corresponding cyanocarboxylic acid [1]: 88%
N#CC(O)c1cccc(O)c1 (stereo not drawn) [α-Hydroxy-α-(m-hydroxyphenyl)acetonitrile]		Conversion(%) [2]: 94%
N#CC(O)c1ccc(O)cc1 (stereo not drawn) [α-Hydroxy-α-(p-hydroxyphenyl)acetonitrile]		Conversion(%) [2]: 88%
N#CCCCCCC#N [1,5-Dicyanopentane]		Yield (%) of cyanocarboxylic acid [3]: 90%
N#CCCCC#N [Glutaronitrile]		Yield (%) of cyanocarboxylic acid [3]: 93%
nitrilase bll6402: nitrilase (mandelonitrile hydrolase) from Bradyrhizobium japonicum USDA110, amino acid SEQ ID NO: 2, expressed in E. coli		retained activity in biphasic systems [4]: more than 70%
N#CCc1c[nH]c2ccccc12 [3-Indolylacetonitrile]	2	
N#CCC1(C#N)CCCC1 [1-cyanocyclopentaneacetonitrile]		isolated yield of corresponding cyanocarboxylic acid [1]: 92%
CC(C#N)CCC#N (stereo not drawn) [2-Methylglutaronitrile]	3	
CCCCCC#N [Hexanenitrile]	16	
N#CCCCCC#N [1,4-Dicyanobutane]	5	Yield (%) of cyanocarboxylic acid [3]: 97%
CC(C#N)c1ccccc1 (stereo not drawn) [α-phenylpropionitrile]	10	
N#CC(O)c1ccccc1 (stereo not drawn) [Mandelonitrile]	460	product acid (S)-2 ee (%) ([6]; pH 7.0, overnight at 30° C., chiral HPLC): 0%; product acid (S)-2 yield (%) [6, 9]: 98%; recovered nitrile (R)-1 yield (%) [6, 9]: 0%; activity relative to that of phenylacetonitrile ([5]; hydrolysis by nitrilase bll6402): 4.6 times; Conversion(%) [2]: 98%; activity as % of that for phenylacetonitrile [7]: 12-15%
N#CCCCc1ccccc1 [4-Phenylbutyronitrile]	4	
N#CCCc1ccccc1 [Hydrocinnamonitrile]	13	
CSCC#N [Methylthioacetonitrile]	1	Yield (%) of product carboxylic acid [8]: 96%
N#C/C=C/C#N [Fumaronitrile]		Yield (%) of cyanocarboxylic acid [3]: 84%
CCCCC#N [Valeronitrile]	6	
CC(=O)c1ccc(C#N)cc1 [4-Acetylbenzonitrile]	2	

Molecule	Relative Activity [5]	other results
C=CCC#N [Allyl cyanide]	2	
N#CCCCCl [4-Chlorobutyronitrile]	6	
N#CCc1ccccc1 [Phenylacetonitrile]	100	
CCC(C#N)c1ccccc1 (stereo not drawn) [α-Phenylbutyronitrile]	8	
N#CCCN [3-Aminopropionitrile]	1	
C[Si](C)(C)OC(C#N)c1ccccc1 (stereo not drawn) [α-Trimethylsilyloxyphenylacetonitrile]	165	Conversion(%) [2]: 99%
CC(CC#N)c1ccccc1 (stereo not drawn) [3-phenylbutyronitrile]		hydrolysis by nitrilase bll6402 (result in words) ([6]; same conditions as β-hydroxy nitriles): not hydrolyzed
CC=CC#N [Crotononitrile]	3	
CCCCCCC#N [Heptanenitrile]	22	
CN(C)C(C#N)c1ccccc1 (stereo not drawn) [α-N,N-Dimethylaminophenylacetonitrile]	1	
N#Cc1ccccc1 [Benzonitrile]	1	
N#CCCCCCCCCC#N [Sebeconitrile]		Yield (%) of cyanocarboxylic acid [3]: 88%
CCCC#N [n-Butyronitrile]	3	Yield (%) of product carboxylic acid [8]: 61%
N#CCCCCCCC#N [1,6-Dicyanohexane]		Yield (%) of cyanocarboxylic acid [3]: 88%
N#CCC1(C#N)CCCCCC1 [1-cyanocycloheptaneacetonitrile]		isolated yield of corresponding cyanocarboxylic acid [1]: 54%
CC(C)(C#N)C#N [α,α-Dimethylmalononitrile]		Yield (%) of cyanocarboxylic acid [3]: 93%
N#CC(N)c1ccccc1 (stereo not drawn) [2-Phenylglycinonitrile]	3	
N#CCCO [3-Hydroxypropionitrile]	1	
N#CCCC#N [Succinonitrile]		Yield (%) of cyanocarboxylic acid [3]: 97%
